Columns and labels:
HIV = HIV test in a cell culture (syncytia formation in infected PBLs); assay type: cell-based; settings: Human immunodeficiency virus 1, Lymphocyte, 72 h; HIV-infected normal human blood lymphocytes (PBLs), evaluated day 3 to 6 after infection; read-out: IC50 value (PBL), 50% suppression of virus-induced syncytia
Method: HIV test in a cell culture with slight modifications according to Pauwels et al., Journal of Virological Methods 20, pages 309-321 (1988).
Normal human blood lymphocytes (PBLs) were concentrated via Ficoll-Hypaque and stimulated with phytohaemagglutinin (90 μg/ml) and interleukin-2 (40 U/ml) in RPMI 1640, 20% fetal calf serum. For infection with the infectious HIV, the PBLs were pelletised, and the cell pellet was then suspended in 1 ml of HIV virus adsorption solution and incubated at 37° C. for 1 hour.
The virus adsorption solution was centrifuged, and the infected cell pellet was taken up in growth medium in such a manner that 1×10^5 cells were present per ml. The cells infected in this manner were pipetted into the wells of 96-well microtitre plates in such a manner that each well contained 1×10^4 cells.
The first vertical row of the microtitre plate only contained growth medium and cells which were not infected but otherwise had been treated in the same manner as described above (cell control). The second vertical row of the microtitre plate only contained HIV-infected cells (virus control) in growth medium. […]
The test batches were incubated at 37° C. until the formation of syncytia typical for HIV occurred in the untreated virus control (between day 3 and 6 after infection), which formation was then evaluated under a microscope. […]

HIV protease = target: T1, HIV protease (Human immunodeficiency virus type 1 group M subtype B, UniProt P04585); experiment: HIV-specific protease enzyme test (cleavage of synthetic Gag peptide, RP HPLC); assay type: biochemical; settings: purified HIV protease, HIV-1, synthetic peptide substrate; read-out: IC50 value (concentration causing 50% inhibition of the protease activity)
T1 construct: purified HIV protease
Method: HIV-specific protease enzyme test according to J. Hansen, S. Billich, T. Schulze, S. Sukrow and K. Molling, EMBO Journal, Vol. 7, No. 6, pages […] (1988).
This test was carried out by incubation of purified HIV protease with synthetic peptide which imitates a cleavage site in the Gag precursor protein and represents an in vivo cleavage point of the HIV protease. The resulting cleavage products of the synthetic peptide were analysed by reversed-phase high performance liquid chromatography (RP HPLC). The compound obtained according to Example 11 gave an IC50 value of 5×10^-8 with HIV-1. The IC50 value indicates the concentration of the substance causing 50% inhibition of the protease activity under the test conditions.

IC50 (HIV protease): 0.05 µM
Structure (SMILES): CC(C)[C@H](NC(=O)[C@H](Cc1cccc2ccccc12)CS(=O)(=O)C(C)(C)C)C(=O)N[C@@H](Cc1ccccc1)C(O)CN1CCC2CCCCC2C1C(F)(F)F (some centres unmarked) [Example 11]
IC50 (HIV): 2.5 µM
